Data published in PubChem BioAssay (NCI).
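Dose response: 5 concentrations. Exposure: 48 h. Format: 96-well plates. Endpoint: linear interpolation; highest concentration if not reached. At the TGI there is no net growth.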

Tests used:
Test in all cases: NCI-60 cell line screen, 48 h
[1] = test system: MDA-MB-231 breast
[2] = test system: NCI-H522 lung
[3] = test system: CAKI-1 renal
[4] = test system: RXF 393 renal
[5] = test system: OVCAR-3 ovarian
[6] = test system: MOLT-4 leukemia
[7] = test system: MALME-3M melanoma
[8] = test system: NCI-H23 lung
[9] = test system: CCRF-CEM leukemia
[10] = test system: SF-268 CNS
[11] = test system: HT29 colon
[12] = test system: MDA-MB-435
[13] = test system: EKVX NSCLC
[14] = test system: HCC-2998 colon
[15] = test system: A498 renal
[16] = test system: K-562 leukemia
[17] = test system: SF-295 CNS
[18] = test system: SK-MEL-5 melanoma
[19] = test system: KM12 colon
[20] = test system: ACHN renal
[21] = test system: LOX IMVI melanoma
[22] = test system: BT-549 breast
[23] = test system: HOP-92 NSCLC
[24] = test system: MDA-N
[25] = test system: MCF7 breast
[26] = test system: HS 578T breast
[27] = test system: OVCAR-4 ovarian
[28] = test system: SK-MEL-28 melanoma
[29] = test system: NCI-H460 lung
[30] = test system: U251 CNS
[31] = test system: UACC-257 melanoma
[32] = test system: SW-620 colon
[33] = test system: DU-145 prostate
[34] = test system: RPMI-8226 leukemia
[35] = test system: NCI-H226 lung
[36] = test system: SK-OV-3 ovarian
[37] = test system: SR leukemia
[38] = test system: HCT-116 colon
[39] = test system: 786-0 renal
[40] = test system: HCT-15 colon
[41] = test system: UO-31 renal
[42] = test system: IGROV1 ovarian
[43] = test system: TK-10 renal
[44] = test system: PC-3 prostate
[45] = test system: HOP-62 NSCLC
[46] = test system: SK-MEL-2 melanoma
[47] = test system: OVCAR-5 ovarian
[48] = test system: HL-60(TB) leukemia
[49] = test system: UACC-62 melanoma
[50] = test system: SN12C renal
[51] = test system: SNB-19 CNS
[52] = test system: COLO 205 colon
[53] = test system: NCI/ADR-RES ovarian
[54] = test system: M14 melanoma
[55] = test system: A549 NSCLC
[56] = test system: SNB-75 CNS
[57] = test system: T-47D breast
[58] = test system: SF-539 CNS
[59] = test system: OVCAR-8 ovarian

Measured: TGI

S=c1nc2sc3c(c2c(Nc2ccc(Cl)cc2)[nH]1)CCCC3
> 100 µM: [1] | [2] | [3] | [4] | [5] | [6] | [7] | [8] | [9] | [10] | [11] | [12] | [13] | [14] | [15] | [16] | [17] | [18] | [19] | [20] | [21] | [22] | [23] | [24] | [25] | [26] | [27] | [28] | [29] | [30] | [31] | [32] | [33] | [35] | [36] | [37] | [38] | [39] | [40] | [41] | [42] | [43] | [44] | [45] | [46] | [47] | [48] | [49] | [50] | [51] | [52]
72.4 µM: [34]

Nn1c(CCCCCCCCc2nnc(COc3ccc(Cl)cc3Cl)n2N)nnc1COc1ccc(Cl)cc1Cl
70 µM: [52]
66 µM: [42]
59.7 µM: [2]
> 100 µM: [1] | [3] | [4] | [6] | [7] | [8] | [10] | [11] | [12] | [13] | [14] | [15] | [16] | [53] | [18] | [19] | [20] | [22] | [23] | [24] | [25] | [27] | [28] | [29] | [30] | [31] | [32] | [33] | [34] | [35] | [39] | [54] | [40] | [41] | [43] | [44] | [55] | [46] | [47] | [49] | [50] | [51]
86.8 µM: [38]

Cc1ccc2c(c1)[nH]c(=S)n2C=C(C(N)=O)C(N)=O
> 100 µM: [1] | [56] | [3] | [4] | [5] | [57] | [8] | [10] | [11] | [12] | [13] | [14] | [15] | [53] | [17] | [18] | [19] | [20] | [21] | [22] | [23] | [24] | [27] | [28] | [29] | [30] | [31] | [32] | [33] | [35] | [36] | [38] | [39] | [54] | [40] | [41] | [42] | [43] | [58] | [45] | [55] | [46] | [47] | [48] | [49] | [50] | [51] | [52] | [59]

Cc1ccc(-c2n[nH]c(Cc3nc(-c4ccc(C)cc4)n[nH]3)n2)cc1
> 100 µM: [1] | [2] | [56] | [4] | [5] | [6] | [8] | [9] | [10] | [11] | [12] | [13] | [14] | [16] | [53] | [17] | [18] | [19] | [20] | [21] | [22] | [23] | [24] | [25] | [27] | [28] | [31] | [32] | [33] | [34] | [36] | [38] | [39] | [54] | [40] | [41] | [42] | [43] | [58] | [44] | [45] | [55] | [46] | [47] | [49] | [50] | [51] | [52] | [59]
33.8 µM: [30]
